In patent publication US11065244B2, “Methods of use of tetrahydroberberine (THB)” (DIGNITY HEALTH, priority 2010, dated 2021):

Legend:
Format in all cases: cell-based
[1] = molecular target: T1, KATP channels in SNc DA neurons (Rattus norvegicus, UniProt P70673+Q09429); test: Perforated patch current-clamp recording of rotenone-opened KATP channels in dissociated SNc DA neurons; settings: for altered membrane potential in the presence of rotenone: FIG. 5C
T1 construct: functional KATP channels natively expressed on midbrain dopamine neurons; from tissue; host or cells: acutely dissociated dopaminergic neurons of rat substantia nigra pars compacta
Procedure: (§1) The protocol for preparation of single neurons from the rat SNc was approved by the Institutional Animal Care and Use Committee of the Barrow Neurological Institute. Single DA neurons were acutely dissociated from the SNc of 2-3-week-old Wistar rats following the protocol as previously described. Briefly, rats were anesthetized with isoflurane, and brain tissue was rapidly removed and immersed in cold (2-4° C.) dissection solution which contained: 136.7 mM NaCl, 5 mM KCl, 0.1 mM Na2HPO4, 0.2 mM KH2PO4, 9.84 mM HEPES, 16.6 mM D-glucose, 21.9 mM sucrose, pH 7.3, 330 mOsm, oxygenated with 100% O2 [8]. Three 400-μm coronal slices containing the SNc were cut using a vibrotome (Vibroslice 725M, WPI, Sarasota, Fla.). After cutting, slices were continuously bubbled with 95% O2-5% CO2 at room temperature (22±1° C.) for at least one hour in artificial cerebrospinal fluid (ACSF), which contained: 124 mM NaCl, 5 mM KCl, 24 mM NaHCO3, 1.3 mM MgSO4, 1.2 mM KH2PO4, 2.4 mM CaCl2, and 10 mM glucose, pH 7.4. Thereafter, slices were treated with pronase (1 mg per 6 ml) at 31° C. for 30 minutes in ACSF. The SNc was identified in a coronal slice using a stereo microscope with reference to the rat brain atlas, and was micro-punched out from slices using a well-polished needle. One punched piece was then transferred to a 35-mm culture dish filled with well-oxygenated standard extracellular solution, which contained: 150 mM NaCl, 5 mM KCl, 1 mM MgCl2, 2 mM CaCl2, 10 mM glucose 10, and 10 mM HEPES, pH 7.4 (with Tris-base). The punched piece was then dissociated mechanically using a fire-polished micro-Pasteur pipette under an inverted microscope (Olympus IX-70, Lake Success, N.Y.). The separated cells adhered to the bottom of the culture dish within 30 minutes. In the present study, we used only DA neurons that maintained their original morphological features of polygonal, large or medium somata with 2-4 thick primary dendritic processes were used.
Perforated patch whole-cell recording techniques were employed as previously described. Pipettes (3-5 MΩ) used for perforated patch recording were filled with intracellular recording solution containing 140 mM potassium gluconate, 10 mM KCl, 5 mM MgCl2, and 10 mM HEPES, pH 7.2 (with Tris-OH). The amphotericin B was freshly prepared to 200-240 μg/ml from a 40 mg/ml in DMSO stock. The liquid junction potential was 14 mV calculated using Clamplex 9.2 (Axon Instruments, Foster City, Calif.) and corrections were made for junction potentials post-hoc. After tight seal (>2 GΩ) formation, it usually took about 5-20 min to convert to perforated patch mode, and an access resistance of 20-60 MΩ was accepted to start the experiments. Series resistance was not compensated in this study. The data were filtered at 2 kHz, acquired at 10 kHz and digitized on-line (Digidata 1322 series A/D board, Axon Instruments, Foster City, Calif.). […] Drug application was performed using a computer-controlled “U-tube” system as previously described. All experiments were performed at room temperature (22±1° C.). To enable identification of single, dissociated SNc neurons after a patch-clamp recording session, the recording pipette was filled with a fluorescent dye (lucifer yellow CH, Sigma Chemical Co., St. Louis, Mo., 1.0 mg/ml in the recording electrode) in some experiments. After conversion from the perforated patch to the conventional whole-cell recording mode, the dye was ejected into the cytoplasm by a pulse (200 ms, 0.5 Hz) of hyperpolarizing current (1.0 nA) for 3 min. Labeled cells were visualized using epifluorescence microscopy.
Under physiological conditions, the KATP channels are mostly closed. However, in the acutely-dissociated single neurons from rat SNc, there is background opening of KATP channels. […]

neuronal KATP channels = molecular target: T2, neuronal KATP channels (Rattus norvegicus, UniProt P70673+Q09429); test: Rotenone-induced outward current in voltage-clamp mode in the presence of the D2 receptor antagonist sulpiride; settings: 100 mM substance as printed; sulpiride present; VH −30 mV; from 125.8±37.1 pA; 6 neurons; p<0.01
T2 construct: functional KATP channels natively expressed on midbrain dopamine neurons; from tissue; host or cells: acutely dissociated dopaminergic neurons of rat substantia nigra pars compacta
Procedure: as §1, with “In the present study, we used only DA neurons that maintained their original morphological features of polygonal, large or medium somata with 2-4 thick primary dendritic processes were used.” left out
Perforated patch whole-cell recording techniques were employed as previously described. […] The liquid junction potential was 14 mV calculated using Clamplex 9.2 (Axon Instruments, Foster City, Calif.) and corrections were made for junction potentials post-hoc. […]

Kir6.2SUR1 KATP channels = molecular target: T3, Kir6.2SUR1 KATP channels (Homo sapiens, UniProt Q09428+Q14654); test: Patch-clamp cell attached single-channel recording of transfected Kir6.2SUR1 channels in HEK-293 cells
T3 construct: expressed in transfected cells; host or cells: HEK-293
Procedure: In β-cells, the dominant subtype of KATP is the Kir 6.2SUR1 subtype, as earlier described. Cells transiently transfected with the KATP Kir 6.2SUR1 channel subtype were evaluated for membrane potential and action potential firing using cell-attached recording in the presence or absence of 100 μm THB (FIG. 8A).
To further determine the effects of THB and Ipt on pancreatic β-cell-type KATP channels, the inventor examined the effects of THB or Ipt on the transfected Kir6.2SUR1 KATP channels in HEK-293 cells.

[2] = molecular target: T4, pancreatic β-cell KATP channels (Rattus norvegicus, UniProt P70673+Q09429); test: Whole-cell KATP currents induced by ramp pulses in rat pancreatic β-cells; settings: 100 μM bath application; external glucose 5.5 mM; ramp −90 to −50 mV
T4 construct: Single Channel Currents of KATP Channels in Rat Pancreatic β-Cells; from tissue; host or cells: rat pancreatic β-cells
Procedure: To determine whether or not THB and Ipt can block pancreatic β-cell KATP channels, whole-cell currents induced by repetitive ramp pulses from −90 to −50 mV (at 0.2 Hz) were recorded in voltage-clamp mode (external glucose=5.5 mM).

[3] = molecular target: T4, pancreatic β-cell KATP channels; test: Inside-out patch single channel recording in rat pancreatic β-cells, ATP free solution; settings: bath-applied
rat pancreatic islets = test: Insulin release from rat pancreatic islets; settings: 100 μM; 5.5 mM glucose external; from 22.5±1.2
Procedure: With 5.5 mM glucose in the external solution, basal insulin secretion was measured. […] Bath application of 100 μM THB increased insulin secretion from 22.5±1.2 to 39.4±1.5 pg/islet/min (FIG. 5; P<0.01; 6 cells) and 100 μM Ipt increased insulin secretion from 22.5±1.2 to 34.5±1.8 pg/islet/min (FIG. 11; P<0.05; 7 cells).

T1 sequence (P70673 whole entry): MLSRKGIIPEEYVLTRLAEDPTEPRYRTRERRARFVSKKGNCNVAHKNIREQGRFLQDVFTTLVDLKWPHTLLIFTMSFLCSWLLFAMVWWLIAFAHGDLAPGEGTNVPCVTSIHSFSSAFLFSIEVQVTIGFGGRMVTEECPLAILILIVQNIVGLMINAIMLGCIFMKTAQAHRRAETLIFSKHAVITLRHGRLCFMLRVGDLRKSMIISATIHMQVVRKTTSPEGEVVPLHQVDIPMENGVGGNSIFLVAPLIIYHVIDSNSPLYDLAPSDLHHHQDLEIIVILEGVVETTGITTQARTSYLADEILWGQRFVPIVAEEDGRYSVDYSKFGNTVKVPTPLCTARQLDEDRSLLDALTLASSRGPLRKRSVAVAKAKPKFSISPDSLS
T1 sequence (Q09429 whole entry): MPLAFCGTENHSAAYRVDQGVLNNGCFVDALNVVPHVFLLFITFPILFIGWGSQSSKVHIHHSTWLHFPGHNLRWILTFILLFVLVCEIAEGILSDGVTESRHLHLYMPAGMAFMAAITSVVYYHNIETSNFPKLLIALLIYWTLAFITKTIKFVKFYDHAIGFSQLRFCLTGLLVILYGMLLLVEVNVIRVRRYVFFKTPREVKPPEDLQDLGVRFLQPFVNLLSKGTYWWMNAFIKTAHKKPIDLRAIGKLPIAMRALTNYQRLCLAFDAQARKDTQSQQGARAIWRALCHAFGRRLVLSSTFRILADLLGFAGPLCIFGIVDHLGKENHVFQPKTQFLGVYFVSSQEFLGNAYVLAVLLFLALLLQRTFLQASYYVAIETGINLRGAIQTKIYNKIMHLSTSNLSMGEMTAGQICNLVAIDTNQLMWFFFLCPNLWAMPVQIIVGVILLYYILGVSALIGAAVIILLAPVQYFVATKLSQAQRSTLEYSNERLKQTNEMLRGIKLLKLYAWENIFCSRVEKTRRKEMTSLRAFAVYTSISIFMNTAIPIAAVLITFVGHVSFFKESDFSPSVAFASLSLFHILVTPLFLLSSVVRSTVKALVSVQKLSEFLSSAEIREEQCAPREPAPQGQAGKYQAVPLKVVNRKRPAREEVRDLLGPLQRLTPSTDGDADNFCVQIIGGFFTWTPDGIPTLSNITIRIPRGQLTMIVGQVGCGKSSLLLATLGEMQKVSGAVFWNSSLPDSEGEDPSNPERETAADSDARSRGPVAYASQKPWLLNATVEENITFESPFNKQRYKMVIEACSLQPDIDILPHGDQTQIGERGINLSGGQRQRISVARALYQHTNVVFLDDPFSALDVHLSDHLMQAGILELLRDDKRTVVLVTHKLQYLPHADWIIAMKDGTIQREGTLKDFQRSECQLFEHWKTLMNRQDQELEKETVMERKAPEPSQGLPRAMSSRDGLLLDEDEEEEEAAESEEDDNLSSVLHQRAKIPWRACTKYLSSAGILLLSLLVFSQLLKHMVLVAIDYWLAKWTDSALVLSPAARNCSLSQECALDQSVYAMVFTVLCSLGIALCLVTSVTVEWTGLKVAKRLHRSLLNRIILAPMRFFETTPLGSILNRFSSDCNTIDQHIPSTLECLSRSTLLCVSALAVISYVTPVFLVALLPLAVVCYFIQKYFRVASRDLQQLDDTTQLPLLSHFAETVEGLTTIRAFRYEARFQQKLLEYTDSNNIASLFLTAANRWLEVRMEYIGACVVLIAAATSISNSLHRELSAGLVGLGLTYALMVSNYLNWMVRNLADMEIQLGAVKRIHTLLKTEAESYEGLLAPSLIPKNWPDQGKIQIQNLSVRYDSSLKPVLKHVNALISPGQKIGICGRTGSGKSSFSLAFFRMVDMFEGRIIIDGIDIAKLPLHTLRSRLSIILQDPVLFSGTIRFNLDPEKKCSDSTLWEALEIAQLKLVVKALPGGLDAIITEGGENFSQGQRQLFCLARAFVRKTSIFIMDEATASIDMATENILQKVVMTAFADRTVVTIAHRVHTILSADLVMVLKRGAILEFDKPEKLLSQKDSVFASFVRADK
T3 sequence (Q14654 whole entry): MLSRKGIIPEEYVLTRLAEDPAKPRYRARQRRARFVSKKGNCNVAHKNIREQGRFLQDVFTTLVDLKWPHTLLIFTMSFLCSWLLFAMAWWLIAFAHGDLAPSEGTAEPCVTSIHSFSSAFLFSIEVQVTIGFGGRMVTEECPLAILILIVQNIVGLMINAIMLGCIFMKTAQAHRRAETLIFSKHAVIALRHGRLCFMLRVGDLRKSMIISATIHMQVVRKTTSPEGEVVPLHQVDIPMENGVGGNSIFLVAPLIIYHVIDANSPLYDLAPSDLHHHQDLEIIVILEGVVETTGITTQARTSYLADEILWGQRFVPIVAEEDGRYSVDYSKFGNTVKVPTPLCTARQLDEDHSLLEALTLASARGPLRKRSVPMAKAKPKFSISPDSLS
T3 sequence (Q09428 whole entry): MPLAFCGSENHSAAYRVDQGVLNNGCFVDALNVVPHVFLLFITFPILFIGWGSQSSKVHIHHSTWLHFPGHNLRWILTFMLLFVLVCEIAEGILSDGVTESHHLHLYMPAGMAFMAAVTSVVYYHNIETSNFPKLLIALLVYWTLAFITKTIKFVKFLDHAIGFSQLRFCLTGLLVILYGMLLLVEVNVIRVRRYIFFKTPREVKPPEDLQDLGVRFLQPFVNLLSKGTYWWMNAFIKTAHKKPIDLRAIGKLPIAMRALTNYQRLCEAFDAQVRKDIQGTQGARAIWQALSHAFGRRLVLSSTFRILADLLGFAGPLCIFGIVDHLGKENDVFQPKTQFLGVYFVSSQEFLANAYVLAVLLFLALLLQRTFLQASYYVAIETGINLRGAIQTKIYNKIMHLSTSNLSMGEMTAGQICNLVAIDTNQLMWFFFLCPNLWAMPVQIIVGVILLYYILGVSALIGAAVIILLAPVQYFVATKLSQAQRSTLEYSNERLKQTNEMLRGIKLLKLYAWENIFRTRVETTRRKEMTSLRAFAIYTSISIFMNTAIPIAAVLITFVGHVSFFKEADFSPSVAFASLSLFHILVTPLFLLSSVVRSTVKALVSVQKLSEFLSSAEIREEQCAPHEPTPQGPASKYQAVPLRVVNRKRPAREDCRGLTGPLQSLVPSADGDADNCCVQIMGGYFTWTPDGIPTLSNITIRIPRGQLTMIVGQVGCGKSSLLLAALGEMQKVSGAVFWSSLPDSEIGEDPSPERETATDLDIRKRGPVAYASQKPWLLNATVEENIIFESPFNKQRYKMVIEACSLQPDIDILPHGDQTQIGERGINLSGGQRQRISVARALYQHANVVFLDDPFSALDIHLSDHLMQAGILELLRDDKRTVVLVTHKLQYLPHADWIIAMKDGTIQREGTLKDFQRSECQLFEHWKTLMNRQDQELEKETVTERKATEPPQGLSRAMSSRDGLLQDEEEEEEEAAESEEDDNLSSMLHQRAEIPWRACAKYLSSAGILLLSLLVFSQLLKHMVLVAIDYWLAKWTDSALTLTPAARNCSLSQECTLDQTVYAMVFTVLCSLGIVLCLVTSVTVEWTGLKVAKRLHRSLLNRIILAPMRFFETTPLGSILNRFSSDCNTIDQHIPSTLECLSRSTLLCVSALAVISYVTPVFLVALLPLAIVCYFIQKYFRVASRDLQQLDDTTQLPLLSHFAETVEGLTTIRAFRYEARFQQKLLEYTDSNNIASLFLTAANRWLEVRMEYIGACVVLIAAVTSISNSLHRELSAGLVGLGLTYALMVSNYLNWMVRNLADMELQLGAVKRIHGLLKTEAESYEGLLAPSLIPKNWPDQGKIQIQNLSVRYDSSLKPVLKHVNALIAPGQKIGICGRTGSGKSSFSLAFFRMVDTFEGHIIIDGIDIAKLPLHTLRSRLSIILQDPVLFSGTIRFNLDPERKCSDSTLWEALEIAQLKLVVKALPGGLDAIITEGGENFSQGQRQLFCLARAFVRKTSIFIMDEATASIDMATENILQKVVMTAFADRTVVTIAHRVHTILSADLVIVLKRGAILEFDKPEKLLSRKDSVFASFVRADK
T4 sequence (P70673 whole entry): as the sequence (P70673 whole entry) above
T4 sequence (Q09429 whole entry): as the sequence (Q09429 whole entry) above
T2 sequence (P70673 whole entry): as the sequence (P70673 whole entry) above
T2 sequence (Q09429 whole entry): as the sequence (Q09429 whole entry) above

## COc1ccc2c(c1OC)CN1CCc3cc4c(cc3C1C2)OCO4 (centres unmarked) [THB, tetrahydroberberine]
[1]; 1 μM rotenone, before: THB −61.7±1.3 (n=11), tolbutamide −61.6±1.2 (n=21), p<0.01
  membrane potential after substance during persistent perfusion of rotenone: −46.7±0.9 mV
[1]; 1 μM substance
  altered membrane potential in the presence of rotenone: 0.8±0.3 mV
[1]; 10 μM substance
  altered membrane potential in the presence of rotenone: 5.7±0.7 mV
[1]; 100 μM substance
  altered membrane potential in the presence of rotenone: 15.1±1.2 mV
[1]; 100 μM, 6 neurons, FIG. 4B
  altered membrane potential (depolarization) on rotenone-opened KATP channels, analog comparison: 15.5±1.6 mV
[1]; membrane depolarization in the presence of rotenone
  Hill coefficient of concentration-effect relationship curve: 2.1
[1]; membrane depolarization in the presence of rotenone, read-out: IC50 of concentration-effect relationship curve (block of KATP channels)
  IC50: 13.1 µM
[1]; rotenone 1 mM and sulpiride 10 mM as printed, 6 neurons, FIG. 7A
  effect on rotenone-induced membrane hyperpolarization in the presence of D2 receptor antagonist: significantly restored membrane hyperpolarization and action potential firing
Neuronal KATP channels
  rotenone-induced outward current amplitude after addition of substance: 52.5±25.7 pA
Kir6.2SUR1 KATP channels; 100 μM, control as 1, THB 6 patches, Ipt 8 patches
  normalized NPo value: 0.51±0.05
Kir6.2SUR1 KATP channels; 100 μm THB, three experiments, FIG. 8B
  change in channel activity NP0 compared to control: 50%
[2]
  effect on β-cell KATP channel-mediated whole-cell currents: reduced these β-cell KATP channel-mediated currents
[3]
  effect on single channel activities opened by ATP free solution: inhibited these single channel activities
Rat pancreatic islets
  insulin secretion after bath application: 39.4±1.5 pg/islet/min
